Measured values: PubChem BioAssay AID328 (DTP/NCI, 2004)
Where “and” joins values, the source holds several entries; their conditions need not be identical. Equal entries are not always repeated. Toxic doses and inconclusive results are not listed.

System: BDF1 mice, P388 leukemia ip, median survival T/C
Test: NCI In Vivo Anticancer Drug Screen. Data for tumor model P388 Leukemia (intraperitoneal) in B6D2F1 (BDF1) mice
Conditions: endpoint: median survival time, higher = longer survival
In short: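 Survival ratio, drug arm over vehicle arm, in mice with a transplanted tumour.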

Compound: COc1cccc2c1C(=O)c1c(O)c3c(c(O)c1C2=O)C[C@@](O)(C(=O)CO)C[C@@H]3OC1CC(N)C(O)C(C)O1 (some centres not stated)
- T/C (dose: 0.25 mg/kg/injection, schedule: Q03HX024 (ip), vehicle: saline): 230 % of control
- T/C (dose: 0.37 mg/kg/injection, schedule: Q03HX024 (ip), vehicle: saline): 285 % of control
- T/C (dose: 0.39 mg/kg/injection, schedule: Q01DX009 (ip), vehicle: water): 152 % of control
- T/C (dose: 0.5 mg/kg/injection, schedule: Q01DX009 (ip), vehicle: saline): 250 % of control
- T/C (dose: 0.5 mg/kg/injection, schedule: Q03HX024 (ip), vehicle: saline): 250 % of control
- T/C (dose: 0.75 mg/kg/injection, schedule: Q03HX024 (ip), vehicle: saline): 240 % of control
- T/C (dose: 0.8 mg/kg/injection, schedule: Q01DX004 (ip), vehicle: saline): 270 % of control
- T/C (dose: 0.9 mg/kg/injection, schedule: Q01DX009 (ip), vehicle: clinical formulation): 263 % of control
- T/C (dose: 1.0 mg/kg/injection, schedule: Q01DX001 (ip), vehicle: saline): 153 % of control
- T/C (dose: 1.0 mg/kg/injection, schedule: Q01DX004 (ip), vehicle: saline): 536 % of control
- T/C (dose: 1.0 mg/kg/injection, schedule: Q01DX009 (ip), vehicle: saline): 285 % of control
- T/C (dose: 1.0 mg/kg/injection, schedule: Q03HX008 (ip), vehicle: water): 250 % of control
- T/C (dose: 1.0 mg/kg/injection, schedule: Q03HX016 (ip), vehicle: saline): 290 % of control
- T/C (dose: 1.0 mg/kg/injection, schedule: Q04DX003 (ip), vehicle: saline): 106 % of control
- T/C (dose: 1.0 mg/kg/injection, schedule: Q04DX009 (ip), vehicle: water): 117 % of control
- T/C (dose: 1.2 mg/kg/injection, schedule: Q01DX009 (ip), vehicle: saline): 304 % of control
- T/C (dose: 1.2 mg/kg/injection, schedule: Q03HX008 (ip), vehicle: saline): 539 % of control
- T/C (dose: 1.3 mg/kg/injection, schedule: Q01DX009 (ip), vehicle: clinical formulation): 473 % of control
- T/C (dose: 1.5 mg/kg/injection, schedule: Q01DX009 (ip), vehicle: saline): 361 % of control
- T/C (dose: 1.5 mg/kg/injection, schedule: Q03HX024 (sc), vehicle: saline): 95 % of control
- T/C (dose: 1.56 mg/kg/injection, schedule: Q01DX009 (ip), vehicle: water): 224 % of control
- T/C (dose: 1.6 mg/kg/injection, schedule: Q01DX004 (ip), vehicle: saline): 423 % of control
- T/C (dose: 1.73 mg/kg/injection, schedule: Q04DX003 (ip), vehicle: water): 256 % of control
- T/C (dose: 1.8 mg/kg/injection, schedule: Q01DX009 (ip), vehicle: saline): 295 % of control and 306 % of control
- T/C (dose: 1.8 mg/kg/injection, schedule: Q03HX008 (ip), vehicle: saline): 539 % of control
- T/C (dose: 1.8 mg/kg/injection, schedule: Q04DX003 (ip), vehicle: saline): 122 % of control
- T/C (dose: 1.8 mg/kg/injection, schedule: Q## X003 (ip), vehicle: saline): 122 % of control
- T/C (dose: 2.0 mg/kg/injection, schedule: Q01DX009 (ip), vehicle: clinical formulation): 247 % of control
- T/C (dose: 2.0 mg/kg/injection, schedule: Q01DX009 (ip), vehicle: saline): 238 % of control and 250 % of control
- T/C (dose: 2.0 mg/kg/injection, schedule: Q03HX008 (ip), vehicle: water): 254 % of control
- T/C (dose: 2.0 mg/kg/injection, schedule: Q04DX003 (ip), vehicle: saline): 122 % of control
- T/C (dose: 2.0 mg/kg/injection, schedule: Q06HX004 (ip), vehicle: water): 300 % of control
- T/C (dose: 2.16 mg/kg/injection, schedule: Q04DX003 (ip), vehicle: water): 247 % of control
- T/C (dose: 2.5 mg/kg/injection, schedule: Q01DX009 (ip), vehicle: saline): 119 % of control
- T/C (dose: 2.5 mg/kg/injection, schedule: Q01DX009 (sc), vehicle: saline): 115 % of control
- T/C (dose: 2.5 mg/kg/injection, schedule: Q04DX003 (ip), vehicle: water): 237 % of control
- T/C (dose: 2.7 mg/kg/injection, schedule: Q01DX009 (ip), vehicle: saline): 124 % of control
- T/C (dose: 2.7 mg/kg/injection, schedule: Q03HX008 (ip), vehicle: saline): 92 % of control
- T/C (dose: 2.7 mg/kg/injection, schedule: Q04DX003 (ip), vehicle: saline): 122 % of control
- T/C (dose: 2.7 mg/kg/injection, schedule: Q## X003 (ip), vehicle: saline): 122 % of control
- T/C (dose: 2.88 mg/kg/injection, schedule: Q04DX003 (ip), vehicle: water): 241 % of control
- T/C (dose: 3.0 mg/kg/injection, schedule: Q01DX009 (ip), vehicle: clinical formulation): 473 % of control
